# Calls of active or inactive are those of the source.
# Tests used:
# cells [1] = type: functional, cell-based
# cells [2] = type: functional, cell-based; remark: listed apart in the source
# [3] = biological target: T1, Short transient receptor potential channel 4 (Mus musculus, UniProt Q9QUQ5); test: calcium entry via TRPC4 opening agents – cell-based, HEK293 TRPC4/mu-opioid, Fluo-4 calcium, dose response (AID 434937); type: functional
# T1 sequence (Q9QUQ5 whole entry): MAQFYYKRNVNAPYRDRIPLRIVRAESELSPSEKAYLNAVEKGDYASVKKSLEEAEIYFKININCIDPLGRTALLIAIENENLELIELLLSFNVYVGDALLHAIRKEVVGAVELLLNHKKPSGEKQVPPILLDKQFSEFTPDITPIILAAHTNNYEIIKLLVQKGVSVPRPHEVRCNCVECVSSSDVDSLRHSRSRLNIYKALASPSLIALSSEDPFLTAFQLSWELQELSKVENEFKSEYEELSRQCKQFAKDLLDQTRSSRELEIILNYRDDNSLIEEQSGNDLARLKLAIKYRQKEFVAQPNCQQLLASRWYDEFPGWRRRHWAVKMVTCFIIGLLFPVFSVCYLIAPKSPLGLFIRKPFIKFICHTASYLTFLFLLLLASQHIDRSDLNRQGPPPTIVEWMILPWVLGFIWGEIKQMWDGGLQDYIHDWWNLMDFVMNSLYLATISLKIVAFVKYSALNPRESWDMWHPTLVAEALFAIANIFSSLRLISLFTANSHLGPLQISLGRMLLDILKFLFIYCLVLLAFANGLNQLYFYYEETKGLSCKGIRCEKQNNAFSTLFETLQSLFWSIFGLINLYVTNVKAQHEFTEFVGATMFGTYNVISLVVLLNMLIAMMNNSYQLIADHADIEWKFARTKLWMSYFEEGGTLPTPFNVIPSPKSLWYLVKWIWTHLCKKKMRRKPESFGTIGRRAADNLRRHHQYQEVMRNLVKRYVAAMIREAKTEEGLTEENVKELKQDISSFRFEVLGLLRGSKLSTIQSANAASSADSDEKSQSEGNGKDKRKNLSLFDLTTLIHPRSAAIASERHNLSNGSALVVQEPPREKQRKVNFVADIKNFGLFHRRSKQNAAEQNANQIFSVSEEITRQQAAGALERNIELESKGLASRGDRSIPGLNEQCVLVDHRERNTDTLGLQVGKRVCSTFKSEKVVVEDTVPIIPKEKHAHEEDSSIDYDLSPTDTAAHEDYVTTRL
# [4] = biological target: Delta-type opioid receptor (Homo sapiens, UniProt P41143); test: Counterscreen for agonists of heterodimerization of the mu 1 (OPRM1) and delta 1 (OPRD1) opioid receptors: Luminescence-based cell-based high throughput dose response assay to identify agonists of OPRD1 homodimerization. [Related pubchem assays (depositor defined):AID504326, AID504355, AID504692, AID504904, AID504905]; type: functional
# Sequence of Delta-type opioid receptor (P41143 whole entry): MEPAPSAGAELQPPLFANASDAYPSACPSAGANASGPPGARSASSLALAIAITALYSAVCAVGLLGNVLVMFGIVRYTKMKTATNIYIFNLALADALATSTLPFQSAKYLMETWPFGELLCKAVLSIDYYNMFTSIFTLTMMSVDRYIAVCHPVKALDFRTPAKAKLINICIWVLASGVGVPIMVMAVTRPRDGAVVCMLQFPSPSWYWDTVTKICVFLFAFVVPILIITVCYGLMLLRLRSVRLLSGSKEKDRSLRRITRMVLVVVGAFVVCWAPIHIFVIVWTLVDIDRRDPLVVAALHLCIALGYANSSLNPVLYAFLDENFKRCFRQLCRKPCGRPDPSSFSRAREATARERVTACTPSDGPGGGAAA
# Mu-type opioid receptor = Mu-type opioid receptor (Homo sapiens, UniProt P35372); test: Counterscreen for agonists of heterodimerization of the mu 1 (OPRM1) and delta 1 (OPRD1) opioid receptors: Luminescence-based cell-based high throughput dose response assay to identify agonists of OPRM1 homodimerization.; type: functional;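 note: U2OS cells expressing OPRM1 and beta-arrestin as split beta-galactosidase partners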
# Sequence of Mu-type opioid receptor (P35372 whole entry): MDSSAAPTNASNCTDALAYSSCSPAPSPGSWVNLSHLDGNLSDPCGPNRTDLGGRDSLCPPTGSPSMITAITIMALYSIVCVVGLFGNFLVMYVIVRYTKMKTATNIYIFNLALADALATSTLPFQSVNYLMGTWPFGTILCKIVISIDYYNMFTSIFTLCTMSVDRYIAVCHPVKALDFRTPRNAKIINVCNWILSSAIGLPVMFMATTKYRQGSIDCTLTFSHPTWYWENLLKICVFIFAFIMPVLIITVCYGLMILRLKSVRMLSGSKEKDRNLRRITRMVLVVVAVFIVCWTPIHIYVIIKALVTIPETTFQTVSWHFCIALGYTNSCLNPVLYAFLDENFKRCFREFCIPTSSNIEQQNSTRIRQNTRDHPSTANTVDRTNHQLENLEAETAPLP
# [5] = biological target: 5-hydroxytryptamine receptor 5A (Homo sapiens, UniProt P47898); test: Counterscreen for agonists of OPRM1-OPRD1 heterodimerization: luminescence-based cell-based high throughput dose response assay to identify agonists of 5-hydroxytryptamine (serotonin) 5A receptor (HTR5A). [Related pubchem assays (depositor defined):AID504326, AID504355, AID504692, AID504904, AID504905]; type: functional
# Sequence of 5-hydroxytryptamine receptor 5A (P47898 whole entry): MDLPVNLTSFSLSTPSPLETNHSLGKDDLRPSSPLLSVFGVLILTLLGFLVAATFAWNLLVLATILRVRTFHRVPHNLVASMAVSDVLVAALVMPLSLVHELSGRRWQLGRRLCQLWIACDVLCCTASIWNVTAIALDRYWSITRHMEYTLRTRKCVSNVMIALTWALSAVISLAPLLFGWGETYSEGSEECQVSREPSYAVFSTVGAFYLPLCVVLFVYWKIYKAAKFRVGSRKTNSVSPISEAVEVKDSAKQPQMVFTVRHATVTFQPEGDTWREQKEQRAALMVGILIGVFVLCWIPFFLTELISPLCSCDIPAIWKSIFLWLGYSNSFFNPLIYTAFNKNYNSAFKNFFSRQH
# [6] = test system: Streptococcus sp. 'group A'; test: Streptococcus pyogenes SK(-)GAS viability under kanamycin – luminescence, BacTiterGlo, confirmation, counter-screen for streptokinase expression inhibitor project, dose response (AID 1900); type: functional, organism-based
# [7] = microbe, parasite or virus in culture; type: functional; conditions: Mycobacterium tuberculosis
# Streptococcus = test: GAS UMAA2166 growth inhibition – luminescence, BacTiterGlo, counter-screen for streptokinase expression inhibitor project, dose response (AID 1915); type: functional, organism-based;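 note: potency for reduction of bacterial viability or growth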
# Escherichia coli [8] = test: microbe, parasite or virus in culture
# Escherichia coli [9] = test: microbe, parasite or virus in culture; remark: listed apart in the source
# [10] = biological target: T2, Endoribonuclease toxin MazF (Escherichia coli K-12, UniProt P0AE70); test: activation of MazEF endoribonuclease cleavage – biochemical, fluorescence, single-stranded RNA substrate, uHTS hits, dose response (AID 588481); type: functional
# T2 sequence (P0AE70 whole entry): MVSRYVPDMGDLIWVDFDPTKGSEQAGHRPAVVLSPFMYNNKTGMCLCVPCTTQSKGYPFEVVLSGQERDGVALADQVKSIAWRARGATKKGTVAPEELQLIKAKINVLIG
# [11] = biological target: T2, Endoribonuclease toxin MazF; test: substrate-only fluorescence increase artefacts – biochemical, single-stranded RNase substrate, counter-screen for MazEF activator project, dose response (AID 588502); type: functional
# NS3 = NS3 (Hepatitis C virus, UniProt A3EZJ3); test: PubChem AID 2173; design: species or system Hepacivirus hominis
# Sequence of NS3 (A3EZJ3 whole entry): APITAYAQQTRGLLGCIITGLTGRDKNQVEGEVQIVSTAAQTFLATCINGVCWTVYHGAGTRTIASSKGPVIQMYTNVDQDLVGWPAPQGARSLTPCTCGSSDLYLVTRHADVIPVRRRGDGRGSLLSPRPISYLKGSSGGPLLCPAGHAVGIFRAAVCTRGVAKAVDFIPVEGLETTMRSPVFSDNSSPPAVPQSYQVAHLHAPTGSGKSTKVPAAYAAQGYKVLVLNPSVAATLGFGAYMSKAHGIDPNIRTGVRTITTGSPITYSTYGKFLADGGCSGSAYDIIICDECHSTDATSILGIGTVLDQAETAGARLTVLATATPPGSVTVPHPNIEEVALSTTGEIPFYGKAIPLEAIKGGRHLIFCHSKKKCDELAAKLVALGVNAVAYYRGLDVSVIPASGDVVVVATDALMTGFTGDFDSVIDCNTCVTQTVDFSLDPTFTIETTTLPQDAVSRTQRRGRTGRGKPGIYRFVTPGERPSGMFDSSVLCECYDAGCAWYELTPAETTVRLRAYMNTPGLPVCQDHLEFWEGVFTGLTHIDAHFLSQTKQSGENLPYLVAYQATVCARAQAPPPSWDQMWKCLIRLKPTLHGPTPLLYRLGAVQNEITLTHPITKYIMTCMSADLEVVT
# DNA topoisomerase = DNA topoisomerase (Yersinia pestis, UniProt A0A2S9PM60); test: Yersinia topoisomerase I cleavage product accumulation – biochemical, cherry-pick, dose response (AID 588525)
# Sequence of DNA topoisomerase (A0A2S9PM60 whole entry): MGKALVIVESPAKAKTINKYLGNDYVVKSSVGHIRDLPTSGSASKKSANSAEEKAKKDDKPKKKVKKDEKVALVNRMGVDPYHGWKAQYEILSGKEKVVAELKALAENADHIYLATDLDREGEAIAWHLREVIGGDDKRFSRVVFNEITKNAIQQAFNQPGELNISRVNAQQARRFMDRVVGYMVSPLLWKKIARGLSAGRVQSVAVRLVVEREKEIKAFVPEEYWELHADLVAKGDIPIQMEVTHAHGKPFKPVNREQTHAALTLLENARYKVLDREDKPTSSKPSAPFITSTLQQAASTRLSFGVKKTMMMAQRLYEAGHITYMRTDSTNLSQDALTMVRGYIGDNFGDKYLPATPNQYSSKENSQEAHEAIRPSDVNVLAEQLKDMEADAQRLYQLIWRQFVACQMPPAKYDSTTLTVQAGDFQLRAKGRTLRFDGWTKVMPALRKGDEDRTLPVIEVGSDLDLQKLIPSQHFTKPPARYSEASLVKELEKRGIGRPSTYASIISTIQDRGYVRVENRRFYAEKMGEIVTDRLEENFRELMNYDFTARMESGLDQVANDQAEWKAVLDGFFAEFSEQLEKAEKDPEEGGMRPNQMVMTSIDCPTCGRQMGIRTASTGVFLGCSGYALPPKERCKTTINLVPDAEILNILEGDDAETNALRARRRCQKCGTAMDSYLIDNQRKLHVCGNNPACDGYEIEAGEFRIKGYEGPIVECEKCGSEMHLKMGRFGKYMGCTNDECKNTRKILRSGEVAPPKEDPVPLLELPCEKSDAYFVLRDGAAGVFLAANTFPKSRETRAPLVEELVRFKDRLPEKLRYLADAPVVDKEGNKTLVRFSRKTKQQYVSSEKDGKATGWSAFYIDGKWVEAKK
# [12] = biological target: T3, Low molecular weight phosphotyrosine protein phosphatase (Homo sapiens, UniProt P24666); type: functional; conditions: read-out: IC50_Mean;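 note: Dose-response confirmation assay measuring inhibition of LMPTP enzyme activity by fluorescence intensity read-out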
# T3 sequence (P24666 whole entry): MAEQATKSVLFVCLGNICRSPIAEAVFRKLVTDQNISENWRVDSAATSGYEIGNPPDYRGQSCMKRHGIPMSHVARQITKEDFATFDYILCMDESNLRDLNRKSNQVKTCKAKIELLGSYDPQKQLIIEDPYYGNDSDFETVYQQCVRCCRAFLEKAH
# Beta-galactosidase = Beta-galactosidase (Escherichia coli, UniProt Q8VNN2); test: PubChem AID 485352; type: functional
# Sequence of Beta-galactosidase (Q8VNN2 whole entry): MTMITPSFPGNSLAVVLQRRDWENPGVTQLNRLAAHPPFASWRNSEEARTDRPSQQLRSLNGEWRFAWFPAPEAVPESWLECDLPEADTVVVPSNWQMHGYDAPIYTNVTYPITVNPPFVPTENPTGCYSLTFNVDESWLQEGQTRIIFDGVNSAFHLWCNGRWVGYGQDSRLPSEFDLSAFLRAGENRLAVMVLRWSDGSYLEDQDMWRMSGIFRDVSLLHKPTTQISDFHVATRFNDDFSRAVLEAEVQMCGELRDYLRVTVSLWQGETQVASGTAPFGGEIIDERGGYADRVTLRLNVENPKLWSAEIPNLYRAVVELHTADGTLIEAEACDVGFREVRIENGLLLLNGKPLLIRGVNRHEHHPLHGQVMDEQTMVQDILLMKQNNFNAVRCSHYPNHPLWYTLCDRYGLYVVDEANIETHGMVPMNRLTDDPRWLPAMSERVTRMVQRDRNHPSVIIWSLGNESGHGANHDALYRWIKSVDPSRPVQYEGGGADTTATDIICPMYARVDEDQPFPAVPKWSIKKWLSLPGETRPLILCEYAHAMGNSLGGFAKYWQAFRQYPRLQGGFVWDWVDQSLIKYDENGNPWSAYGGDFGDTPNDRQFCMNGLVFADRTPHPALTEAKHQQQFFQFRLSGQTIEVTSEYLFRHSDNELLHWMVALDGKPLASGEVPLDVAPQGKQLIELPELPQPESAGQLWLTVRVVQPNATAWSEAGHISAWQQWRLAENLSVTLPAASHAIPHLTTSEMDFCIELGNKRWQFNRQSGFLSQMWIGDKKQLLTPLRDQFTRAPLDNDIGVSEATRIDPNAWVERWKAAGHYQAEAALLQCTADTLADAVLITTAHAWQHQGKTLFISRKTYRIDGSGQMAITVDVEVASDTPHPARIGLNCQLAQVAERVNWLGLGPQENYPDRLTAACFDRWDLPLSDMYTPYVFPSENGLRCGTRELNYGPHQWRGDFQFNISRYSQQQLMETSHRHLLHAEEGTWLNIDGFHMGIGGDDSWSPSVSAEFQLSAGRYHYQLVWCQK
# [13] = biological target: Type-1 angiotensin II receptor (Homo sapiens, UniProt P30556); test: antagonism of angiotensin II type 1 receptor – cell-based, uHTS hits, selectivity assay for APJ receptor antagonist project, dose response (AID 463214); type: functional;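 note: antagonist potency against angiotensin II stimulated AT1 response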
# Sequence of Type-1 angiotensin II receptor (P30556 whole entry): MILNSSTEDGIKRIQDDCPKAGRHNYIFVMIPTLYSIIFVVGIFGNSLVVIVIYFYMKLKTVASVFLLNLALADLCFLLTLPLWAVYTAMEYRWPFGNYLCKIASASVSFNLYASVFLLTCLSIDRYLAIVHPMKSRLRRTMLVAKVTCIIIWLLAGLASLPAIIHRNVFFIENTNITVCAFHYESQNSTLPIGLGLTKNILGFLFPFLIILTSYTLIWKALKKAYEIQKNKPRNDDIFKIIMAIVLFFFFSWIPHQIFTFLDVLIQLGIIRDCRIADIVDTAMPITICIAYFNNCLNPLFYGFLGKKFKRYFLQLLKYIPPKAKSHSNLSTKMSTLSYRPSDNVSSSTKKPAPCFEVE
# Trypsin = Trypsin (Sus scrofa, UniProt P00761); test: trypsin protease activity blockade – biochemical, quenched peptide fluorescence, cherry-pick, selectivity assay for Rce1 protease inhibitor project, dose response (AID 488789)
# Sequence of Trypsin (P00761 whole entry): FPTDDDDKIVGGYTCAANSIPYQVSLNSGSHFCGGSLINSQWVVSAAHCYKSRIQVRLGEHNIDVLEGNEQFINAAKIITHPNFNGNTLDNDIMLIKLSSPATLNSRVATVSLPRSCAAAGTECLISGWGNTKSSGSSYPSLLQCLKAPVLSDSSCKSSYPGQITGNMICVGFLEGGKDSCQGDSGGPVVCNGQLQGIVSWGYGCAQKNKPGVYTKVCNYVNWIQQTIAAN
# CAAX prenyl protease 2 = CAAX prenyl protease 2 (Homo sapiens, UniProt Q9Y256); test: inhibition of Ras-converting CAAX protease Rce1 – biochemical, yeast membranes, quenched-peptide fluorescence, cherry-pick, dose response (AID 588849)
# Sequence of CAAX prenyl protease 2 (Q9Y256 whole entry): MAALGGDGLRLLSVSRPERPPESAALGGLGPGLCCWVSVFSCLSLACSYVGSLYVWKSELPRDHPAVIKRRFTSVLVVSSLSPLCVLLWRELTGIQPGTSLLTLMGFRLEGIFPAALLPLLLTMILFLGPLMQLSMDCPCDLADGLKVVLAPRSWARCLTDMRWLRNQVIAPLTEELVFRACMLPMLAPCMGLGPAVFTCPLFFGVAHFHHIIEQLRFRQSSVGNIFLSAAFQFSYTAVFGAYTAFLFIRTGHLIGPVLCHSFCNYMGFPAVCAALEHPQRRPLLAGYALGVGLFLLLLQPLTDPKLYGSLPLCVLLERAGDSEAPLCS
# HeLa = test: ATP-based viability loss in HeLa cells – cell-based, CellTiter-Glo luminescence, cherry-pick samples, cytotoxicity control for MITF activator project, dose response (AID 540259); type: functional; conditions: Homo sapiens
# CHO = CHO cell viability loss, potency – luminescence, cytotoxicity control for TLR9-MyD88 binding inhibitor project, dose response (AID 588339); type: functional, cell-based, hamster; conditions: Cricetulus griseus;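 note: CHO cells stably coexpressing TLR9 and MyD88 fusions from primary screen; compound exposure lasted 48 hours before viability readout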
# Beta Lactamase = Beta Lactamase (Pseudomonas aeruginosa, UniProt Q932Y6); test: BLA reporter interference, concentration series – BLA reporter cells, FRET fluorescence, artefact control for TLR9-MyD88 binding inhibitor project, dose response (AID 588341); type: cell-based;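 note: cell based assay in CHO-K1 cells stably expressing beta-lactamase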
# Sequence of Beta Lactamase (Q932Y6 whole entry, the tested form may be a part): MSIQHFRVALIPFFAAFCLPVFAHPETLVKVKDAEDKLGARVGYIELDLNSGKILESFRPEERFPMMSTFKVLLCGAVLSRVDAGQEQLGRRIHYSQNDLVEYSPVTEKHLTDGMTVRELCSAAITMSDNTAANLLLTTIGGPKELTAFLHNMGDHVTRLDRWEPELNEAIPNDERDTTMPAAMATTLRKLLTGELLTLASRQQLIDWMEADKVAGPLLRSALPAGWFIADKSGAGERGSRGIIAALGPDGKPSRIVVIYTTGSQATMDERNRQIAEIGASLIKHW
# [14] = blockers of HIV-1 envelope-mediated cell-cell fusion – cherry-pick, dose response (AID 652057); type: functional, cell-based
# [15] = viability loss in CEM21 cells – cell-based, CellTiter-Glo luminescence, cherry-picked, cytotoxicity control for viral fusion inhibitor project, dose response (AID 652042); type: functional;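 note: potency for signal decrease meaning cytotoxicity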
# [16] = blockers of HIV-1 ZM109 envelope-driven cell-cell fusion – HeLa effector, CEM target cells, luciferase, cherry-pick, dose response (AID 652058); type: functional, cell-based;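 note: luciferase signal from HIV-1 Env mediated cell-cell fusion of effector and target cells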
# [17] = off-target signal loss in HeLa-CEM21 co-culture – HeLa F-luc CTL cells, cherry-picked, counter-screen for HIV-1 Env fusion inhibitor project, dose response (AID 652040); type: functional, cell-based;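 note: potency for signal decrease marking cytotoxic or nonspecific inhibition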
# [18] = HIV-1 AD8 envelope cell-cell fusion blockers – cherry-pick, dose response (AID 652062); type: functional, cell-based;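 note: luciferase signal from cell-cell fusion driven by HIV-1 clade B AD8 Env; potency is for inhibitors of fusion seen as a drop in luminescence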
# [19] = biological target: Heat shock protein HSP 90-alpha (Homo sapiens, UniProt P07900); type: functional, organism-based
structure (smiles),measurement,setting,value
Cc1ccc(C2(O)C[N+](c3ccccc3C)=C3SCCN32)cc1 (centres undefined),EC50,cells [1],> 350 µM (not active)
same,EC50,cells [2],> 350 µM (not active)
same,EC50,[3],0.376 µM (active)
same,EC50,[4],> 92.5 µM (inactive)
same,EC50,Mu-type opioid receptor,2.83 µM (active)
same,EC50,[5],> 92.5 µM (inactive)
CN(C)[C@@H]1C(=O)C(C(N)=O)=C(O)[C@@]2(O)C(O)=C3C(=O)c4c(O)cccc4[C@@](C)(O)C3C[C@@H]12 (some centres undefined),EC50,[6],0.099 µM (active)
same,CC50,[7],> 40 µM (active)
same,EC50,Streptococcus,0.098 µM (active)
same,AC50,Escherichia coli [8],19.9 µM (active)
same,AC50,Escherichia coli [9],1.17 µM (active)
Cc1cccc(NC(=O)c2ccc(NCCc3ccccc3)c([N+](=O)[O-])c2)c1,EC50,[10],17.9 µM (active)
same,EC50,[11],> 99 µM (inactive)
COc1c(N2CCN(C(S)=NCc3ccccc3)C(C)C2)c(F)cc2c(=O)c(C(=O)O)cn(C3CC3)c12 (centres undefined),IC50,NS3,14.9 µM (not active)
same,AC50,DNA topoisomerase,27.8 µM (active)
same,IC50,[12],5.55 µM (active)
CC(=O)c1ccc(NC(=O)CCC(=O)OCC(=O)c2cccc([N+](=O)[O-])c2)cc1,EC50,Beta-galactosidase,> 40 µM (inactive)
same,IC50,[13],34.5 µM (not active)
CC(=O)Oc1ccc2c(c1)OC(c1ccccc1)CC21CC(C)(C)N=C(S)N1 (centres undefined),AC50,Escherichia coli [8],31.7 µM (active)
Cc1c(C)c2c(OCC(=O)NCc3ccncc3)cc3c(c2oc1=O)CCC(C)(C)O3,AC50,Trypsin,5.4 µM (active)
same,AC50,CAAX prenyl protease 2,0.759 µM (active)
COc1ccc2c(c1)oc(=O)c1cc(OC)ccc12,AC50,HeLa,46.8 µM (active)
Nc1c(C(=O)Nc2ccccc2F)sc2nc(-c3cccnc3)ccc12,IC50,CHO,21.7 µM (inactive)
same,IC50,Beta Lactamase,14 µM (inactive)
Cc1ccc(CSC2=Nc3ccccc3C3=NC(=O)CN23)cc1,AC50,DNA topoisomerase,2.02 µM (active)
COc1ccc(C)cc1S(=O)(=O)N(CC(=O)NC1CCCC1)c1ccc(F)cc1,AC50,Escherichia coli [9],37.2 µM (active)
COc1ccc(CNCCc2c[nH]c3ccccc23)c(OC)c1C,EC50,[3],0.841 µM (active)
same,EC50,[4],> 92.5 µM (inactive)
same,EC50,Mu-type opioid receptor,59.5 µM (inactive)
same,EC50,[5],78.4 µM (inactive)
same,AC50,[14],2.44 µM (active)
same,AC50,[15],24.9 µM (active)
same,AC50,[16],7.75 µM (active)
same,AC50,[17],5.48 µM (active)
same,AC50,[18],14.3 µM (active)
c1ccc2cc(C3CCCCC3)ncc2c1,AC50,HeLa,36.7 µM (active)
COC[C@H]1OC(=O)c2coc3c2[C@@]1(C)C1=C(C3=O)[C@@H]2CCC(=O)[C@@]2(C)C[C@H]1OC(C)=O [WORTMANNIN],EC50,[10],> 99 µM (inactive)
same,AC50,[19],0.363 µM (active)
same,EC50,[11],> 99 µM (inactive)

# Reference: ChEMBL document CHEMBL1201862, “PubChem BioAssay data set” (2004)
